Data taken from patent US9181227B2, “Potent and selective inhibitors of hepatitis C virus” (Cocrystal Pharma, Inc., priority 2010, dated 2015).
Like-named read-outs stand apart in the source and are kept apart here.

Experiments:
Assay type in all cases: cell-based
HCV 1b = assay: HCV Replicon Assay; settings: Hepatitis C virus
Method: (§1) Huh 7 Clone B cells containing HCV Replicon RNA would be seeded in a 96-well plate at 5000 cells/well, and the compounds tested at 10 μM in triplicate immediately after seeding. Following five days incubation (37° C., 5% CO2), total cellular RNA was isolated by using versaGene RNA purification kit from Gentra. Replicon RNA and an internal control (TaqMan rRNA control reagents, Applied Biosystems) were amplified in a single step multiplex Real Time RT-PCR Assay. The antiviral effectiveness of the compounds was calculated by subtracting the threshold RT-PCR cycle of the test compound from the threshold RT-PCR cycle of the no-drug control (ΔCt HCV). A ΔCt of 3.3 equals a 1-log reduction (equal to 90% less starting material) in Replicon RNA levels. The cytotoxicity of the compounds was also calculated by using the ΔCt rRNA values. 2′-C-Me-C was used as the positive control. To determine EC90 and IC50 values^2, ΔCt: values were first converted into fraction of starting material^3 and then were used to calculate the % inhibition.
• 1. Stuyver L et al., Ribonucleoside analogue that blocks replication or bovine viral diarrhea and hepatitis C viruses in culture. Antimicrob. Agents Chemother. 2003, 47, 244-254. • 2. Reed I J & Muench H, A simple method or estimating fifty percent endpoints. Am. J. Hyg. 27: 497, 1938. • 3.
A series of additional compounds was evaluated using the methods described herein.

[1] = Cytotoxicity in replicon cells by ΔCt rRNA values; settings: human, Huh 7 Clone B cells containing HCV replicon RNA
Method: as §1

human PBM cells = assay: Cellular toxicity assay, PBM cells; settings: cytotoxicity IC50, human PBM cells
Method: (§2) The toxicity of the compounds was assessed in Vero, human PBM, CEM (human lymphoblastoid), MT-2, and HepG2 cells, as described previously (see Schinazi R. F., Sommadossi J.-P., Saalmann V., Cannon D. L., Xie M.-Y., Hart G. C., Smith G. A. & Hahn E. F. Antimicrob. Agents Chemother. 1990, 34, 1061-67). Cycloheximide was included as positive cytotoxic control, and untreated cells exposed to solvent were included as negative controls. The cytotoxicity IC50 was obtained from the concentration-response curve using the median effective method described previously (see Chou T.-C. & Talalay P. Adv. Enzyme Regul. 1984, 22, 27-55; Belen'kii M. S. & Schinazi R. F. Antiviral Res. 1994, 25, 1-11).

[2] = test system: CEM (human lymphoblastoid) cells; assay: Cellular toxicity assay, CEM cells; settings: cytotoxicity IC50, CEM cells
Method: as §2

Vero cells = assay: Cellular toxicity assay, Vero cells; settings: cytotoxicity IC50, Vero cells
Method: as §2

[3] = 120 h, Huh 7 Clone B cells containing HCV Replicon RNA, five days incubation, read-out: Replicon activity (Median Effective concentration EC50 range against HCV 1b)
[4] = Huh-7, 120 h, read-out: Replicon EC50 (range against HCV 1b)
[5] = 120 h, Huh 7 Clone B cells containing HCV Replicon RNA, five days incubation, read-out: Replicon EC50 (range against HCV 1b)

Compound	EC50 (HCV 1b; [3])	EC50 (HCV 1b; [4])	CC50 at 5 days [1]	Toxicities PBM (human PBM cells)	Toxicities CEM [2]	EC50 (HCV 1b; [5])	Toxicities VERO (Vero cells)
COC(=O)N[C@@H](CC(C)C)C(=O)N1CCC[C@H]1c1ncc(-c2ccc(-c3ccccc3)cc2)[nH]1	100 to 999 nM						
COC(=O)N[C@H](C(=O)N1CCC[C@H]1c1ncc(-c2ccc(N=[N+]=[N-])cc2)[nH]1)C(C)C	1 to 99 nM						
COC(=O)N[C@H](C(=O)N1CCC[C@H]1c1ncc(-c2ccc(-n3cc(-c4cncn4C)nn3)cc2)[nH]1)C(C)C	100 to 999 nM						
C#Cc1ccc(-c2cn(-c3ccc(-c4cnc(C5CCCN5C(=O)[C@@H](NC(=O)OC)C(C)C)[nH]4)cc3)nn2)cc1 (stereo partly shown)	1 to 99 nM						
COC(=O)N[C@H](C(=O)N1C[C@@H](n2cc(C(=O)OC)nn2)C[C@H]1c1ncc(-c2ccc(-c3ccc(-c4cnc([C@@H]5C[C@H](n6cc(C(=O)OC)nn6)CN5C(=O)[C@@H](NC(=O)OC)C(C)C)[nH]4)cc3)cc2)[nH]1)C(C)C		100 to 999 nM	> 1000 nM	53 µM	13.5 µM		
COC(=O)N[C@H](C(=O)N1C[C@@H](n2cc(COC(C)=O)nn2)C[C@H]1c1ncc(-c2ccc(-c3ccc(-c4cnc([C@@H]5C[C@H](n6cc(COC(C)=O)nn6)CN5C(=O)[C@@H](NC(=O)OC)C(C)C)[nH]4)cc3)cc2)[nH]1)C(C)C		100 to 999 nM	> 1000 nM	53 µM	13.5 µM		
COC(=O)N[C@H](C(=O)N1C[C@@H](SC)C[C@H]1c1ncc(-c2ccc(-c3ccc(-c4cnc([C@@H]5C[C@H](SC)CN5C(=O)[C@@H](NC(=O)OC)C(C)C)[nH]4)cc3)cc2)[nH]1)C(C)C			> 1000 nM	15.6 µM	13.3 µM	< 1 nM	10.9 µM
COC(=O)N[C@H](C(=O)N1C[C@H](n2cc(-c3ccccc3)nn2)C[C@H]1c1ncc(-c2ccc(-c3ccc(-c4cnc([C@@H]5C[C@@H](n6cc(-c7ccccc7)nn6)CN5C(=O)[C@@H](NC(=O)OC)C(C)C)[nH]4)cc3)cc2)[nH]1)C(C)C			> 1000 nM	> 100 µM	> 100 µM	1 to 99 nM	> 100 µM
COC(=O)N[C@H](C(=O)N1C[C@H](n2ccnn2)C[C@H]1c1ncc(-c2ccc(-c3ccc(-c4cnc([C@@H]5C[C@@H](n6cc([Si](C)(C)C)nn6)CN5C(=O)[C@@H](NC(=O)OC)C(C)C)[nH]4)cc3)cc2)[nH]1)C(C)C			> 1000 nM	3 µM	16.2 µM	1 to 99 nM	> 100 µM
COC(=O)N[C@H](C(=O)N1C[C@H](n2cc([Si](C)(C)C)nn2)C[C@H]1c1ncc(-c2ccc(-c3ccc(-c4cnc([C@@H]5C[C@@H](n6cc([Si](C)(C)C)nn6)CN5C(=O)[C@@H](NC(=O)OC)C(C)C)[nH]4)cc3)cc2)[nH]1)C(C)C			> 1000 nM	> 100 µM	25.2 µM	1 to 99 nM	> 100 µM
COC(=O)N[C@H](C(=O)N1CCC[C@H]1c1ncc(-c2ccc(-c3ccccc3)cc2)[nH]1)C(C)C [Methyl ((S)-1-((S)-2-(5-([1,1′-biphenyl]-4-yl)-1H-imidazol-2-yl)pyrrolidin-1-yl)-3-methyl-1-oxobutan-2-yl)carbamate]	100 to 999 nM						
COC(=O)N[C@H](C(=O)N1CCC[C@H]1c1ncc(-c2ccc(-n3cc(-c4ccccc4)nn3)cc2)[nH]1)C(C)C [Methyl ((S)-3-methyl-1-oxo-1-((S)-2-(5-(4-(4-phenyl-1H-1,2,3-triazol-1-yl)phenyl)-1H-imidazol-2-yl)pyrrolidin-1-yl)butan-2-yl)carbamate]	100 to 999 nM						
